Tests used:
Format in all cases: in vivo, pig
slaughter pigs [1] = experiment: Instrumental meat colour (CIE L*a*b*), Example 1; conditions: LS mean ± SEM
slaughter pigs [2] = experiment: Warner-Bratzler shear force (WBSF), instrumental hardness; conditions: 7 days at 2° C., LS mean ± SEM
Description: In Example 1 twenty-one pigs were randomly assigned to one of three feeding groups (n=7). The control group received a standardized diet only. The DLM and HMTBA groups received the standardized diet plus a high-methionine supplement (either DLM (i.e. […] At 48 h post mortem, 3 cm thick pork chops were either vacuum packed or sealed in a modified atmosphere (MA; 80% O2) and stored for an additional 7 days at 2° C. Instrumental hardness was measured using the Warner-Bratzler shear force (WBSF; Newton) method. Protein oxidation was measured as the loss of free thiol groups in proteins (nmol thiol per mg protein) using Ellman's reagent. Lipid oxidation was measured as the increase in 2-thiobarbituric acid reactive substances (TBARS; mg malondialdehyde per kg meat). Twenty-one slaughter pigs ([Yorkshire×Swedish Landrace]×Hampshire) were raised on a commercial diet. Pigs were randomly assigned to one of three groups (n=7). […] Pork chops were cut perpendicular to the long axis of each LD muscle. Six 3 cm thick pork chops was sliced from each LD. Three were vacuum packed and three were packed in a high-oxygen modified atmosphere. The chops were placed in plastic trays ([…]-43A white/PS; 195×144×43 mm in dimension; Frch Plast, Denmark) and placed in vacuum bags (EM-628862; […] The ambient air was removed from all vacuum bags using a vacuum machine (type, manufacturer, country). […] (until 9 days post mortem). The gas composition was checked (CheckMate 9900, PBI Dansensor, Denmark) before packaging and again prior to opening, at the end of the simulated display period in order to check for leakage. The oxygen-enriched environment was well maintained (83.4%) throughout the display period for all MA packages. Instrumental hardness was measured using the Warner-Bratzler shear force (WBSF) method. In short, at the end of the display period fresh samples were heated in a water bath in an oven (type, manufacturer, country). The temperature rise was monitored for one sample and the remaining samples were given the time to reach an internal temperature of 75° C. plus five minutes. The samples were cooled down before cores of 1 cm×1 cm×2.5 cm were excised for shear force analysis.

slaughter pigs [3] = experiment: Free protein thiol (protein oxidation, Ellman's reagent); conditions: for Level of free thiol (protein oxidation): 7 days at 2° C., LS mean ± SEM; for Decline of level of free thiol from storage without oxygen to high-oxygen MAP: vacuum versus MAP
Description: In Example 1 twenty-one pigs were randomly assigned to one of three feeding groups (n=7). The control group received a standardized diet only. The DLM and HMTBA groups received the standardized diet plus a high-methionine supplement (either DLM (i.e. […] At 48 h post mortem, 3 cm thick pork chops were either vacuum packed or sealed in a modified atmosphere (MA; 80% O2) and stored for an additional 7 days at 2° C. Instrumental hardness was measured using the Warner-Bratzler shear force (WBSF; Newton) method. Protein oxidation was measured as the loss of free thiol groups in proteins (nmol thiol per mg protein) using Ellman's reagent. Lipid oxidation was measured as the increase in 2-thiobarbituric acid reactive substances (TBARS; mg malondialdehyde per kg meat). Twenty-one slaughter pigs ([Yorkshire×Swedish Landrace]×Hampshire) were raised on a commercial diet. Pigs were randomly assigned to one of three groups (n=7). […] Pork chops were cut perpendicular to the long axis of each LD muscle. Six 3 cm thick pork chops was sliced from each LD. Three were vacuum packed and three were packed in a high-oxygen modified atmosphere. The chops were placed in plastic trays ([…]-43A white/PS; 195×144×43 mm in dimension; Frch Plast, Denmark) and placed in vacuum bags (EM-628862; […] The ambient air was removed from all vacuum bags using a vacuum machine (type, manufacturer, country). […] (until 9 days post mortem). The gas composition was checked (CheckMate 9900, PBI Dansensor, Denmark) before packaging and again prior to opening, at the end of the simulated display period in order to check for leakage. The oxygen-enriched environment was well maintained (83.4%) throughout the display period for all MA packages. […] In brief, the frozen pork samples were partially thawed at chill storage temperature for 30 minutes. Fat and connective tissue was removed and 1.0 g of lean meat was homogenised in 25 ml of 5.0% SDS (sodium dodecyl sulphate) in 0.10 M Tris ([…]) buffer, pH 8.0 using an Ultra Turrax (Ultra Turrax T-25, Janke & Kunkel IKA-Labortechnik, Germany). The homogenates were placed in a water bath at 80° C. for 30 minutes, and subsequently cooled and filtered. The protein concentration was determined spectrophotometrically (Helios Omega Single Beam UV-VIS, Fisher Scientific Biotech Line, Denmark) at a wavelength of 280 nm using a standard curve prepared from bovine serum albumin (BSA). […] Filtrate (25 μl), Tris buffer (100 μl) and DTNB (25 μl) were added to wells in a 96 well microtiter plate. The absorbance at 410 nm was measured before addition of DTNB (ABS410meat) and after reaction with DTNB (ABS410meat+DTNB). In addition, the absorbance of a blank solution (25 μl 5% SDS dissolved in 100 mM Tris buffer and 100 μl 0.10 M Tris buffer) was likewise measured at 410 nm. After addition of DTNB, the microtiter plate was stored in the dark and the absorbance was measured exactly 30 minutes later. The absorbance corresponding to the thiol concentration in the sample was CorrABS410=ABS410meat+DTNB-ABS410meat-ABS410blank. […] The concentration of free thiol groups was determined as nmol thiol per mg protein. Duplicate homogenates, and triplicate measurements on each homogenate, were made for each meat sample and the mean values were used for further statistical analysis.

pigs = experiment: Dry matter content of muscle samples, Example 2; conditions: Laboratory, 2 days post mortem
Description: The pigs were slaughtered at a commercial slaughter house in Sweden after a resting time of 5 h. At 45 minutes post mortem, pH (Knick portamess 751) and temperature (digital thermometer, Weber) were measured in the M. longissiumus dorsi at the level of the 10th rib. At 48 h post mortem, the entire loins were dissected from the carcasses and transported to the University of Copenhagen for further measurements. Ultimate pH was measured, as well as colour by Minolta L*a*b*. Dry matter content was determined by drying muscle samples at 105° C. for 24 h. Slices of 3 cm thickness were cut, measured and vacuum packed before being stored for a further 7 days at 2° C. At the end of the storage period samples were heated to an internal temperature of 75° C. After being cooled down, samples were stored cold at 2° C. until they were cut into slabs of 1 cm×1 cm×2.5 cm size for shear force measurement. For each animal, 8 specimens were measured and the mean maximum load was used for further analysis.

[4] = MAP 80% O2/20% CO2 (9 days post mortem)

SMILES | Light reflection (L*) (slaughter pigs [1]; [4]) | Light reflection (L*) (slaughter pigs [1]; Vacuum (9 days post mortem)) | Redness (a*) (slaughter pigs [1]; Vacuum (9 days post mortem)) | Saturation index (slaughter pigs [1]; Vacuum (9 days post mortem)) | Yellowness (b*) (slaughter pigs [1]; Vacuum (9 days post mortem)) | Instrumental hardness, WBSF values (slaughter pigs [2]; MAP (80% O2 + 20% CO2)) | Instrumental hardness, WBSF values (slaughter pigs [2]; Vacuum) | Level of free thiol (protein oxidation) (slaughter pigs [3]; MAP (80% O2 + 20% CO2)) | Level of free thiol (protein oxidation) (slaughter pigs [3]; Vacuum) | Decline of level of free thiol from storage without oxygen to high-oxygen MAP (slaughter pigs [3]) [units] | Dry Matter (pigs) [%]
CSCCC(O)C(=O)O (racemic) [HMTBA, 2-hydroxy-4-(methylthio) butanoic acid] | 58.73 ± 1.30 ^A, B | 55.34 ± 1.25 ^A, B | 8.86 ± 0.58 ^A, C | 12.22 ± 0.67 ^A | 8.39 ± 0.46 ^A | 43.64 ± 3.65 ^A, B N | 30.55 ± 3.65 ^C, D N | 59.15 ± 1.13 ^A, B nmol thiol/mg protein | 62.60 ± 1.13 ^A nmol thiol/mg protein | 3.5 | 29
CSCCC(N)C(=O)O (racemic) [DLM, DL-methionine] | 59.19 ± 1.30 ^A | 57.83 ± 1.25 ^A, B | 8.21 ± 0.58 ^A, B | 11.55 ± 0.67 ^A, B, C | 8.11 ± 0.46 ^A, B | 38.58 ± 3.65 ^A, B N | 28.80 ± 3.65 ^D N | 56.27 ± 1.13 ^B nmol thiol/mg protein | 62.16 ± 1.19 ^A nmol thiol/mg protein | 6.0 | 26

— US20140314904A1, “PRE-SLAUGHTER DIET INCLUDING METHIONINE” (ADISSEO FRANCE S.A.S., priority 2011, published 2014)
